According to US9828379B2 (priority 2013, dated 2017):

What was measured:
MAGL [1] = molecular target: T1, MAGL (Mus musculus, UniProt O35678); test: In vitro competitive activity-based protein profiling (Table 2, % inhibition at 1 μM); assay type: biochemical; conditions: read-out: % Inhibition at 1 μM MAGL
T1 sequence (O35678 1-303): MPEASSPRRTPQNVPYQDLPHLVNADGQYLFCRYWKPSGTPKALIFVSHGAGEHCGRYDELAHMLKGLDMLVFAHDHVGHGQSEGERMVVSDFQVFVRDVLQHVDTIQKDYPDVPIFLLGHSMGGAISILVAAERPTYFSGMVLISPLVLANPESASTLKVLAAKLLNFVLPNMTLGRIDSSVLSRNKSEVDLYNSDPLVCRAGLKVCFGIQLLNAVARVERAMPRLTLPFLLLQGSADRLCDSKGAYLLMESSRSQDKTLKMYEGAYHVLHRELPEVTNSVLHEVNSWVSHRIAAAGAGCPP
Experimental: After 30 min, FP—Rh (1.0 μL, 50 μM in DMSO) was added and the mixture was incubated for another 30 min at 37° C. Reactions were quenched with SDS loading buffer (50 μL-4×) and run on SDS-PAGE.
Cell lysates were diluted with mock proteomes for use in competitive ABPP experiments.

ABHD6 [2] = molecular target: T2, ABHD6 (Mus musculus, UniProt Q8R2Y0); test: biochemical; conditions: in vitro competitive ABPP
T2 sequence (Q8R2Y0 1-336): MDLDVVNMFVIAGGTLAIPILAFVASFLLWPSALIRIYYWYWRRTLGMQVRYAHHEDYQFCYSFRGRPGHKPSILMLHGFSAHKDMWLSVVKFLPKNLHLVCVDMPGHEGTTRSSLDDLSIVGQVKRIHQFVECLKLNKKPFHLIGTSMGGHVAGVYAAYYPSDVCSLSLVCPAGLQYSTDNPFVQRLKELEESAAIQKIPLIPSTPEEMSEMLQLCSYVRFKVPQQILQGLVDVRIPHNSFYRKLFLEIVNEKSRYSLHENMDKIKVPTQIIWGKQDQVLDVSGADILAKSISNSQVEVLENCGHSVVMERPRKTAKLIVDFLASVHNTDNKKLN

MAGL [3] = molecular target: T1, MAGL; test: biochemical; conditions: mouse; in vitro competitive ABPP; read-out: Mouse (IC50 value, nM) MAGL
FAAH [4] = molecular target: T3, FAAH (Mus musculus, UniProt O08914); test: biochemical; conditions: in vitro competitive ABPP
T3 sequence (O08914 1-579): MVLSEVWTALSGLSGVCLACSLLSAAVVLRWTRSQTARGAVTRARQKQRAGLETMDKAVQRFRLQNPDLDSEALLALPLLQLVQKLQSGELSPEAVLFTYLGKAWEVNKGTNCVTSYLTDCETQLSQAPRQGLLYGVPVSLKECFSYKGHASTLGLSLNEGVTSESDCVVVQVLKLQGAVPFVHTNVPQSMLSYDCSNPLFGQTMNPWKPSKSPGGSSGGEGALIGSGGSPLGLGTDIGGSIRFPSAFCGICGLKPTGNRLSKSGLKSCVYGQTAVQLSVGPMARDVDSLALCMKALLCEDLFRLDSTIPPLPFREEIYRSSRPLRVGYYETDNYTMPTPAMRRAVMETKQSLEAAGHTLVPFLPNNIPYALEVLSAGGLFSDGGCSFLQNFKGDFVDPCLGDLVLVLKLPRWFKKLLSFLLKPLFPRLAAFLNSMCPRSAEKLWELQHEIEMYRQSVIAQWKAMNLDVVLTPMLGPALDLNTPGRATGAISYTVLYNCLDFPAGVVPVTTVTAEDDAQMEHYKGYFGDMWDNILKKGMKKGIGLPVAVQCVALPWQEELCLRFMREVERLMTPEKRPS

ABHD6 [5] = molecular target: T2, ABHD6; test: In vitro competitive activity-based protein profiling (Table 2, % inhibition at 1 μM); assay type: biochemical; conditions: read-out: % Inhibition at 1 μM ABHD6
FAAH [6] = molecular target: T3, FAAH; test: as above; assay type: biochemical; conditions: read-out: % Inhibition at 1 μM FAAH
Mouse brain MAGL = molecular target: T4, Mouse brain MAGL (Mus musculus, UniProt O35678); test: Mouse brain proteomes from inhibitor treated mice (oral gavage, ABPP analysis); assay type: in vivo; conditions: p.o., sacrificed 4 h following administration
T4 construct: from tissue; host or cells: brain of wild-type C57Bl/6J mice dosed by oral gavage
T4 sequence (O35678 1-303): T1 sequence (O35678 1-303)
Experimental: After 30 min, FP—Rh (1.0 μL, 50 μM in DMSO) was added and the mixture was incubated for another 30 min at 37° C. Reactions were quenched with SDS loading buffer (50 μL-4×) and run on SDS-PAGE. Following gel imaging, serine hydrolase activity was determined by measuring fluorescent intensity of gel bands corresponding to MAGL, ABHD6 and FAAH using ImageJ 1.43 u software.
Inhibitors were administered to wild-type C57Bl/6J by oral gavage in a vehicle of polyethylene glycol. Each animal was sacrificed 4 h following administration and brain proteomes were prepared and analyzed according to previously established methods (See Niphakis, M. J., et al. (2011) ACS Chem. Neurosci. and Long, J. Z., et al. Nat. Chem. Biol. 5:37-44).

SMILES | inhibition at 1 µM (MAGL [1]) [%] | IC50 (ABHD6 [2]) [nM] | IC50 (MAGL [3]) [nM] | IC50 (FAAH [4]) [nM] | inhibition at 1 µM (ABHD6 [5]) [%] | inhibition at 1 µM (FAAH [6]) [%] | inhibition at 5 mg/kg (Mouse brain MAGL) [%]
O=C(OC(C(F)(F)F)C(F)(F)F)N1CC2CN(Cc3cccc(Cl)c3N3CCC4(CCOC4)C3)CC2C1 (stereo not shown) [Example 42, 1,1,1,3,3,3-Hexafluoropropan-2-yl 5-[(3-chloro-2-[2-oxa-7-azaspiro[4.4]nonan-7-yl]phenyl)methyl]-octahydropyrrolo[3,4-c]pyrrole-2-carboxylate] | > 75 | 1000 to 10000 | < 100 | 1000 to 10000 | < 25 | < 25 | 25 to 75
O=C(OC(C(F)(F)F)C(F)(F)F)N1CC2CN(Cc3cccc(N4CCC5(CCOC5)C4)c3C(F)(F)F)CC2C1 (stereo not shown) [Example 128, 1,1,1,3,3,3-hexafluoropropan-2-yl 5-[(3-[2-oxa-7-azaspiro[4.4]nonan-7-yl]-2-(trifluoromethyl)phenyl)methyl]-octahydropyrrolo[3,4-c]pyrrole-2-carboxylate] | > 75 | 1000 to 10000 | < 100 | 1000 to 10000 | < 25 | < 25 | ≤ 25
O=C(OC(C(F)(F)F)C(F)(F)F)N1CC2CN(Cc3ccc(Cl)cc3N3CCC4(CCNC4=O)CC3)CC2C1 (stereo not shown) [Example 38, 1,1,1,3,3,3-Hexafluoropropan-2-yl 5-[(4-chloro-2-[1-oxo-2,8-diazaspiro[4.5]decan-8-yl]phenyl)methyl]-octahydropyrrolo[3,4-c]pyrrole-2-carboxylate] | > 75 | 1000 to 10000 | < 100 | > 10000 | < 25 | < 25 | ≤ 25
CCn1cc(CN2CC3CN(C(=O)OC(C(F)(F)F)C(F)(F)F)CC3C2)c(-c2ccc(N3CCCCC3)cc2)n1 (stereo not shown) [Example 133, 1,1,1,3,3,3-hexafluoropropan-2-yl 5-([1-ethyl-3-[4-(piperidin-1-yl)phenyl]-1H-pyrazol-4-yl]methyl)-octahydropyrrolo[3,4-c]pyrrole-2-carboxylate] | > 75 | 1000 to 10000 | < 100 | 1000 to 10000 | < 25 | < 25 | ≤ 25
CCn1cc(CN2CC3CN(C(=O)OC(C(F)(F)F)C(F)(F)F)CC3C2)c(-c2cccnc2)n1 (stereo not shown) [Example 71, 1,1,1,3,3,3-Hexafluoropropan-2-yl 5-[[1-ethyl-3-(pyridin-3-yl)-1H-pyrazol-4-yl]methyl]-octahydropyrrolo[3,4-c]pyrrole-2-carboxylate] | > 75 | 1000 to 10000 | < 100 | 1000 to 10000 | 25 to 75 | < 25 | 25 to 75
CCn1cc(CN2CC3CN(C(=O)OC(C(F)(F)F)C(F)(F)F)CC3C2)c(C(=O)NCc2ccccc2)n1 (stereo not shown) [Example 78, 1,1,1,3,3,3-Hexafluoropropan-2-yl 5-((3-(benzylcarbamoyl)-1-ethyl-1H-pyrazol-4-yl)methyl)hexahydropyrrolo[3,4-c]pyrrole-2(1H)-carboxylate] | > 75 | 1000 to 10000 | < 100 | > 10000 | 25 to 75 | < 25 | 25 to 75
CC(C)c1cc(CN2CC3CN(C(=O)OC(C(F)(F)F)C(F)(F)F)CC3C2)n(C2CCOCC2)n1 (stereo not shown) [Example 62, 1,1,1,3,3,3-Hexafluoropropan-2-yl 5-[[1-(oxan-4-yl)-3-(propan-2-yl)-1H-pyrazol-5-yl]methyl]-octahydropyrrolo[3,4-c]pyrrole-2-carboxylate] | > 75 | 1000 to 10000 | < 100 | 1000 to 10000 | 25 to 75 | < 25 | ≥ 75
CC(=O)N1CC2(CCN(c3ccccc3CN3CC4CN(C(=O)OC(C(F)(F)F)C(F)(F)F)CC4C3)C2)C1 (stereo not shown) [Example 137, 1,1,1,3,3,3-hexafluoropropan-2-yl 5-[(2-[2-acetyl-2,6-diazaspiro[3.4]octan-6-yl]phenyl)methyl]-octahydropyrrolo[3,4-c]pyrrole-2-carboxylate] | > 75 | 1000 to 10000 | < 100 | 1000 to 10000 | < 25 | < 25 | ≤ 25
CC(=O)N1CCN(c2cccc(CN3CC4CN(C(=O)OC(C(F)(F)F)C(F)(F)F)CC4C3)c2C)CC1 (stereo not shown) [Example 152, 1,1,1,3,3,3-hexafluoropropan-2-yl 5-[[3-(4-acetylpiperazin-1-yl)-2-methylphenyl]methyl]-octahydropyrrolo[3,4-c]pyrrole-2-carboxylate] | > 75 | 1000 to 10000 | < 100 | 1000 to 10000 | 25 to 75 | < 25 | ≤ 25
CC(C)c1cc(CN2CC3CN(C(=O)OC(C(F)(F)F)C(F)(F)F)CC3C2)n(C2CCCCC2)n1 (stereo not shown) [Example 61, 1,1,1,3,3,3-Hexafluoropropan-2-yl 5-[[1-cyclohexyl-3-(propan-2-yl)-1H-pyrazol-5-yl]methyl]-octahydropyrrolo[3,4-c]pyrrole-2-carboxylate] | > 75 | 1000 to 10000 | < 100 | > 10000 | 25 to 75 | < 25 | ≥ 75
CC(C)n1cc(CN2CC3CN(C(=O)OC(C(F)(F)F)C(F)(F)F)CC3C2)c(-c2cccc(Cl)c2)n1 (stereo not shown) [Example 174, 1,1,1,3,3,3-hexafluoropropan-2-yl 5-[[3-(3-chlorophenyl)-1-(propan-2-yl)-1H-pyrazol-4-yl]methyl]-octahydropyrrolo[3,4-c]pyrrole-2-carboxylate] | > 75 | 1000 to 10000 | < 100 | 1000 to 10000 | 25 to 75 | < 25 | ≤ 25
Cc1ccc(CN2CC3CN(C(=O)OC(C(F)(F)F)C(F)(F)F)CC3C2)c(-c2ccccc2)c1 (stereo not shown) [Example 207, 1,1,1,3,3,3-hexafluoropropan-2-yl 5-((5-methyl-[1,1′-biphenyl]-2-yl)methyl)hexahydropyrrolo[3,4-c]pyrrole-2(1H)-carboxylate] | > 75 | 1000 to 10000 | 100 to 1000 | 1000 to 10000 | < 25 | < 25 | ≥ 75
O=C(OC(C(F)(F)F)C(F)(F)F)N1CC2CN(Cc3ccc(Cl)cc3N3CCOC4CCCC43)CC2C1 (stereo not shown) [Example 4, 1,1,1,3,3,3-Hexafluoropropan-2-yl 5-(4-chloro-2-(hexahydrocyclopenta[b][1,4]oxazin-4(4aH)-yl)benzyl)hexahydropyrrolo[3,4-c]pyrrole-2(1H)-carboxylate] | > 75 | 1000 to 10000 | 100 to 1000 | 1000 to 10000 | < 25 | < 25 | ≤ 25
